Patent US9023408B2, “Composition and method for control of diabetes” (Meyer Nutriceuticals LLC, priority 2009, dated 2015)

What was measured:
GLP-1 = test: Placebo-controlled double-blinded study in type 2 diabetes: plasma GLP-1; design: species or system human; conditions: in vivo
Description: FIGS. 6 and 7 depict the effect of CTM #3 versus placebo on blood glucose in a randomized, placebo-controlled, double-blinded study in 10 subjects with mild to moderate type 2 diabetes. After an overnight fast, subjects ingested 10 g of placebo pellets or CTM #3 pellets with the same standard breakfast as above (415 kcal; 71 g of carbohydrate) followed by a standard lunch at 240 min (708 kcal; 89 g of carbohydrate). […] The higher calorie lunch raised GLP-1s more than the breakfast on placebo days; and the CTM raised the post lunch GLP-1s even more. […] Using a similar calculation as used above for PYY, the per-calorie effectiveness of the lauric acid in CTM #3 in boosting the GLP-1 response to the meal was 77 times that of the calories in the breakfast.
For comparisons, the APAP levels have been scaled up so that their value equaled that of the GLP-1 peak at 270 min. […] The diabetic subjects were older than the normal subjects, and four of them had mild vagal neuropathy which might have contributed to slower gastric emptying. […]
The GLP-1 values (vertical axis) following the CTM treatment are expressed as a percent of the corresponding value at each time point following the placebo treatment, so that any value above the horizontal 100% line represents the effect of lauric acid released from the CTM #3. […]

[1] = human, in vivo
Description: An additional gram of pellets was added to the dose; and the additional pellets had been surface-labeled with 99m-Tc-polymethylmethacrylate (these additional pellets could not release their contents), so that the positions of the pellets with time could be followed with a gamma camera. The releasing pellets also contained 5% (w/w) APAP which is rapidly and completely absorbed from small or large bowel, even in the presence of food. The APAP served as a pharmacokinetic marker. Subjects ate a free-choice meal at 241 min. Finally, PYY levels (see FIG. 4b) were followed on CTM and also on control days when four of the eight subjects shown in FIG. 4a consumed the standard breakfast at t=0 and a free choice lunch at t=241 min, but no pellets of CTM #3. Because lauric acid released from CTM #3 cannot be distinguished in plasma from dietary and endogenous lauric acid, assays of plasma PYY served as a surrogate for the release of bioactive lauric acid, which is known to be a potent stimulus of secretion of PYY and GLP-1 from L cells. To compare the time-courses of basal subtracted PYY measurements with those of APAP, analytical values for APAP were scaled up so that they equaled the peak PYY at 300 min.
From 240-300 minutes, the pellets began to empty from the ileum, so that by 300 min, there were few pellets in the small bowel, and the majority of pellets was now in the colon. […]

[2] = U.S.P. in vitro dissolution test (rotating basket); conditions: uncoated cores of CTM #3

CCCCCCCCCCCC(=O)O [lauric acid]
per calorie potency relative to dietary nutrients in releasing GLP-1 and PYY (GLP-1): 77-150 times | duration of slow release from the dosage form after ingestion [1]: 330 to 360 min | solubility in simulated bile (bile salts and lecithin) at pH 6.2 ([2]; pH 6.2): only half as soluble as maltose | solubility compared with maltose, bile-free medium ([2]; pH 6.2 1 h then pH 7.2 3 h): much less soluble than maltose | solubility in simulated bile (bile salts and lecithin) at pH 7.2 ([2]; pH 7.2): as soluble as maltose or APAP
